We go through two compounds from patent US8883749B2, “Transcription factor inhibitors and related compositions, formulations and methods” (The Ohio State University, priority 2009, dated 2014).

The test system of test [1] is ALDH^+ subpopulation of MDA-MB-231, SUM159, and SK-BR-3 breast cancer cells. Briefly: ALDEFLUOR assay, percentage of ALDH+ subpopulation. Type of test: cell-based, human. The conditions noted are these: 10 μM, 24 hours. An excerpt: The ALDEFLUOR kit (StemCell Technologies) was used to isolate the population with high ALDH enzymatic activity as known. […] For each sample, an aliquot of cells was stained under identical conditions with […] diethylaminobenzaldehyde (DEAB), a specific ALDH inhibitor, as a ALDH^− control. Anti-human PE-CD24 and PE-Cy5-CD44 antibody (BioLegend) were used for CD44/CD24 identification and to separate ALDH^+/CD44^+/CD24^− and ALDH^−/CD44^+/CD24^+ cells when combine with ALDH staining. Analysis was performed using a FACStarPLUS (Becton Dickinion) flow cytometer.

For test [2], the system named is ALDH^+ subpopulation of MDA-MB-231, SUM159, and SK-BR3 cells. Put plainly: MTT cell viability assay of ALDH+ cells. Type of test: cell-based, human. To be noted: 1 to 10 μmol/L, 72 hours. The method, then: The ALDH^+ subpopulation of breast cancer cells was seeded in 96-well plates (3,000 cells/well) in triplicates in a serum-free mammary epithelial basal medium. […] MTT (Thiazolyl Blue Tetrazolium Bromide, Sigma-Aldrich) assay was used to determine the cell viability.
Background: Tetrazolium dyes change colour on reduction, which living cells bring about.

Test [3] deals with ALDH^+ subpopulation of SK-BR-3, MDA-MB-231, and SUM159. Briefly: Tumorsphere culture of ALDH+ cells. Type of test: cell-based, human. To be noted: 2.5-10 μmol/L, 10 to 15 days. As for the experimental part: Tumorsphere culture was performed as previously described (4). ALDH^+ and ALDH^+/CD44^+/CD24^− cells were plated as single cells in ultra-low attachment six-well plates at a density of 50,000 viable cells/well. […] Tumorsphere growth was observed under a microscope 10 to 15 days later.

The target in test [4] is STAT3 phosphorylation in ALDH^+ subpopulation of MDA-MB-231, SUM159, and SK-BR-3 (Homo sapiens, UniProt P40763). Put plainly: Western blot of ALDH+ cells. Type of test: cell-based. The conditions noted are these: LLL12 5 μmol/L, 24 hours. As for the experimental part:
ALDH^+ and ALDH^- subpopulations, or ALDH^+/CD44^+/CD24^- and ALDH^-/CD44^+/CD24^+ subpopulations of breast cancer cells were separated by flow cytometer. After sorting, ALDH^+ and ALDH^+/CD44^+/CD24^- stem cells were cultured in serum-free stem cell medium in ultra-low attachment six-well plates (Corning) to maintain cancer stem cell characteristics. ALDH^-, ALDH^-/CD44^+/CD24^+ cells and unseperated cells were cultured in regular medium and replaced with identical stem cell medium for three days before being harvested.
(In general: A western blot detects proteins with antibodies after separation by electrophoresis.)

Another test relates to ALDH^− cells. Briefly: Effects on ALDH- cells. Type of test: cell-based, human.
The subject of test [5] is HPAC pancreatic cancer cells. Briefly: MTT cell viability assay. Type of test: cell-based, human. The conditions noted are these: Homo sapiens, 72 hours, 10% FBS, read-out: half-maximal inhibitory concentration (IC50), cell viability. The method, then: (§1) STAT3 activation is important for tumor cell proliferation and survival.
(§2) The cells were incubated at 37° C. for a period of 72 hours. 3-(4,5-Dimethylthiazolyl)-2,5-diphenyltetrazolium bromide (MTT) viability assay was done according to manufacturer's protocol (Roche Diagnostics, Mannheim, Germany). […] Half-maximal inhibitory concentrations (IC50) were determined using Sigma Plot 9.0 Software (Systat Software Inc., San Jose, Calif.).

In test [6] the test system is MDA-MB-231 breast cancer cells. Put plainly: MTT cell viability assay. Type of test: cell-based, human. To be noted: Homo sapiens; MDA-MB-231, MTT, 72 hours, 10% FBS; read-out: half-maximal inhibitory concentration (IC50), cell viability. The method, then:
as §1, §2

In test [7] the test system is PANC-1 pancreatic cancer cells. Put plainly: MTT cell viability assay. Type of test: cell-based, human. The conditions noted are these: Homo sapiens; PANC-1, MTT, 72 hours, 10% FBS; read-out: half-maximal inhibitory concentration (IC50), cell viability. As for the experimental part:
as §1, §2

Test [8] has as its system SK-BR-3 breast cancer cells. Briefly: MTT cell viability assay. To be noted: Homo sapiens; SK-BR-3, MTT, 72 hours, 10% FBS; read-out: half-maximal inhibitory concentration (IC50), cell viability. Type of test: cell-based, human. The method, then:
as §1, §2

For a further test, the system named is U373 glioblastoma cells. Briefly: MTT cell viability assay. Type of test: cell-based, human. To be noted: Homo sapiens, U373 MG, 72 hours, 10% FBS, read-out: half-maximal inhibitory concentration (IC50), cell viability. As for the experimental part:
as §1, §2

Sequence of STAT3 phosphorylation in ALDH^+ subpopulation of MDA-MB-231, SUM159, and SK-BR-3 (P40763 whole entry): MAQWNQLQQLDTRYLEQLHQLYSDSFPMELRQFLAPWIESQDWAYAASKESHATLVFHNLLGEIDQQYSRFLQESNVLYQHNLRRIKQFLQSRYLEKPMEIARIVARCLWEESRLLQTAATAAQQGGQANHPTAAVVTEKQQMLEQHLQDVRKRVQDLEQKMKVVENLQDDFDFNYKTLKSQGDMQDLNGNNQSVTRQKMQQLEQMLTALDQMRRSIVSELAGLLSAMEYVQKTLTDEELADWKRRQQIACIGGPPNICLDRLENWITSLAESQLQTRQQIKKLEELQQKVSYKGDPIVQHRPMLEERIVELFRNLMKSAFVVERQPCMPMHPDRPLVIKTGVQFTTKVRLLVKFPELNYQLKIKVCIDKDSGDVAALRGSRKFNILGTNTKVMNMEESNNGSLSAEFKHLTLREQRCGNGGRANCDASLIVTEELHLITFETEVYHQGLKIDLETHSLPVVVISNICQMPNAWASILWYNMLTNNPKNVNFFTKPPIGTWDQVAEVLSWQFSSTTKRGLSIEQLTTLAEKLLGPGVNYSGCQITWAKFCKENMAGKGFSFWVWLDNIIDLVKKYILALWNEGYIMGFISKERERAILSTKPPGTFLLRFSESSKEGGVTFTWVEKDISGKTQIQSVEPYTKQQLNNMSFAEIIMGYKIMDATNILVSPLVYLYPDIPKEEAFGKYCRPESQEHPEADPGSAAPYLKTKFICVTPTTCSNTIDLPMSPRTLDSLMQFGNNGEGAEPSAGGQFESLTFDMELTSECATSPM

`O=[N+]([O-])c1ccc2c(c1)S(=O)(=O)C=C2` [Stattic]: in test [1], the “ALDH^+ subpopulation percentage” value is listed as “decreased the percentage of ALDH^+ subpopulation”. Besides, the “cell viability of the ALDH^+ subpopulation” value in [2] was “can inhibit cell viability”. For the same compound, the tumorsphere forming capacity entry in test [3] is reported as “can inhibit tumorsphere forming capacity”. Besides, the “STAT3 phosphorylation in ALDH^+ cells” value in test [4] is given as “reduces STAT3 phosphorylation”. In addition, the “effects on ALDH^− cells” value in the test on ALDH^− cells was “inhibitory effects”.
For the compound `C[C@H](NC(=O)/C(C#N)=C/c1cccc(Br)n1)c1ccccc1` [WP1066], the IC50 in test [5] was 2520 nM; in [6], 7.48 µM; in test [7], 5.12 µM; in test [8], 3.31 µM; in the test with U373 glioblastoma cells, 5.16 µM.
